Laboratory results reported in publication PMC7176092, “Development of the first in vivo GPR17 ligand through an iterative drug discovery pipeline: A novel disease-modifying strategy for multiple sclerosis” (PLoS ONE, 2020).
Like-named read-outs stand apart in the source and are kept apart here.

Tests used:
ADR2C = target: T1, ADR2C (Homo sapiens, UniProt P18825); assay: Binding assay ADR2C; conditions: 100 nM
T1 construct: Eurofins Cerep (external service)
T1 sequence (P18825 1-462): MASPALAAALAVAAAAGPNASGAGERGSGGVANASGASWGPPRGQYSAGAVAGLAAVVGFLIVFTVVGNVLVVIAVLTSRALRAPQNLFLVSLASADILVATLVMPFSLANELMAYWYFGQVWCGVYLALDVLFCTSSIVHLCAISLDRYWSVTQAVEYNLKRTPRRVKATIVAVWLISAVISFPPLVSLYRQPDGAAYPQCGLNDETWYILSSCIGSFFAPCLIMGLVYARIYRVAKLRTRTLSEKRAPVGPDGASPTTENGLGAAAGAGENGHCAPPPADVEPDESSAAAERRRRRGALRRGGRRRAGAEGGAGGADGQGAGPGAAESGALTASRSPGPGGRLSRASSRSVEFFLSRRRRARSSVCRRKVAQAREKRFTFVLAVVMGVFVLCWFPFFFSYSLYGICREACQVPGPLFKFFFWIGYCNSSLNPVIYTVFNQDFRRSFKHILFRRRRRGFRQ

ADR1A = target: T2, ADR1A (Homo sapiens, UniProt P35348); assay: Binding assay ADR1A; conditions: 100 nM
T2 construct: Eurofins Cerep (external service)
T2 sequence (P35348 1-466): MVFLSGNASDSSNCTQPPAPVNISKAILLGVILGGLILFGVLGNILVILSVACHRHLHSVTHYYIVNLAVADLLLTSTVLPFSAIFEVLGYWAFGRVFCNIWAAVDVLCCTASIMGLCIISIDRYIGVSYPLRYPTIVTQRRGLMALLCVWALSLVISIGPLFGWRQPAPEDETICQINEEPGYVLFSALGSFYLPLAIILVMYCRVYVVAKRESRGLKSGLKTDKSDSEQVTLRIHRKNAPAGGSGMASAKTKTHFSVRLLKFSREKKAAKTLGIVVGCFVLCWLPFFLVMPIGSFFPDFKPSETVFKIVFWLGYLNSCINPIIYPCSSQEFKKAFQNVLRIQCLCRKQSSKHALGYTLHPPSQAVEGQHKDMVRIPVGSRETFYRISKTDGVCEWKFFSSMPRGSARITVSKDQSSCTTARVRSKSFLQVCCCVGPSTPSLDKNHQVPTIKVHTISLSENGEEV

[1] = Single dose time course study in plasma and brain, 10 mg/kg subcutaneous; format: in vivo, mouse; conditions: 10 mg/kg s.c. single dose, C57BL/6 male mice
Procedure: Afterwards, the presence of the top compound in the brain was assessed in a single dose time course study consisting of a subcutaneous administration of a 10 mg/kg dose (15% Ethanol, 85% PEG400) to 24 naïve C57BL/6 male mice. Eight time-points (n = 3/time-point) were drawn over 24 hours after dosing. Each animal was sampled for blood collection at two time-points (the first via a tail vein, the second via cardiac puncture under anaesthesia). Blood samples were collected and centrifuged to prepare plasma according to standard procedures and stored at approximately -20°C, pending analysis (n = 48 samples). The brain of each animal was collected at sacrifice and analysed alongside plasma samples for compound quantification (n = 24 samples). Plasma and brain homogenate samples were analysed for test compound quantification using an optimised method based on protein precipitation followed by HPLC-MS/MS analysis. The results for test substance in plasma and brain homogenates were subjected to non-compartmental PK analysis using WinNonlin Phoenix v.6.3 for generation of appropriate pharmacokinetic parameters to be reported along with graphical representation of the mean plasma concentration profiles over time.

CCR7 = target: T3, CCR7 (Homo sapiens, UniProt P32248); assay: Cellular functional assay CCR7
T3 sequence (P32248 25-378): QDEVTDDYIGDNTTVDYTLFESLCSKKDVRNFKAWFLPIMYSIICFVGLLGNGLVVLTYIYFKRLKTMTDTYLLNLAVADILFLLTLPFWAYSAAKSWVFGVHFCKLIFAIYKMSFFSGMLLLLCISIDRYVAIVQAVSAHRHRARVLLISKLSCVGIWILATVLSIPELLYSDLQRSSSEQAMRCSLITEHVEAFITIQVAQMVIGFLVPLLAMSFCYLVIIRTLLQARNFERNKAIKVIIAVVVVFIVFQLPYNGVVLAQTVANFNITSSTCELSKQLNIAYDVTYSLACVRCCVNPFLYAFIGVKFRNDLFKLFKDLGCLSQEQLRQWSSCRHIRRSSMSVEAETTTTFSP

M2 = target: T4, M2 (Homo sapiens, UniProt P08172); assay: Binding assay M2; conditions: 100 nM
T4 construct: Eurofins Cerep (external service)
T4 sequence (P08172 1-466): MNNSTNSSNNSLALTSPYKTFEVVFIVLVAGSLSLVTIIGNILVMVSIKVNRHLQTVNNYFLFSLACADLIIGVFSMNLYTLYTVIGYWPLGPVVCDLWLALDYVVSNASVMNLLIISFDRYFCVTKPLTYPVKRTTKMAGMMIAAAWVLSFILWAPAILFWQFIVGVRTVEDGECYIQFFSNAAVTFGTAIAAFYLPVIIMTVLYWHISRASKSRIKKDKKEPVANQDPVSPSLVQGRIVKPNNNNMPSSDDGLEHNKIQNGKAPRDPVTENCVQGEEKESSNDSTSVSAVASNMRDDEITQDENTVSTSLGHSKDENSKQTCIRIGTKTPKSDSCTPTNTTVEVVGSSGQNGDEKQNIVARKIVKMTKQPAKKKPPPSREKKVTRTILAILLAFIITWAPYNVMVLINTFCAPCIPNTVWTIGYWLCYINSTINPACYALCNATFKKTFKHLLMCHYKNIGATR

[2] = mean of 2, read-out: % Of control specific binding, Mean
[3] = read-out: % Inhibition of control specific binding
[4] = single replicates 1 and 2, 0.1 µM
[5] = single replicates 1 and 2, read-out: % Of control specific binding

With `Cc1ccc(-c2nnc(SCC(=O)Nc3nccs3)[nH]2)cc1` [Compound 9] the remaining activity at 0.1 µM (ADR2C; [2]) was 109%, the inhibition at 0.1 µM (ADR2C; [3]) was -9% and the “% Of control specific binding” value (ADR2C; [4]) was 108.4%. For the same compound, the remaining activity at 0.1 µM (ADR2C; [5]) was 109%, the remaining activity at 0.1 µM (ADR1A; [2]) was 112% and the “% Of control specific binding” value (ADR1A; [4]) was 108.1%. For the same compound, the remaining activity at 0.1 µM (ADR1A; [5]) was 117%, the Tlast ([1]; brain) was 6.00 h and the AUC(0-t) ([1]; mouse, sc, brain) was 205 ng·h/mL. For the same compound, the Cmax ([1]; mouse, sc, brain) was 270 ng/mL, the Tmax ([1]; mouse, sc, brain) was 15 min and the concentration at 6 h ([1]; mouse, sc, brain, read-out: Clast) was 5.8 ng/mL. The AUC(0-t) ([1]; mouse, sc, plasma) was 3930 ng·h/mL, the Cmax ([1]; mouse, sc, plasma) was 6520 ng/mL and the Tmax ([1]; mouse, sc, plasma) was 15 min. The concentration at 8 h ([1]; mouse, sc, plasma, read-out: Clast) was 17.4 ng/mL, the Tlast ([1]; plasma) was 8.00 h and the “Agonist Response (% of Control)” value (CCR7; antagonist effect, 100 nM, single replicates 1st and 2nd, 0.1 µM) was 122.8%. The inhibition at 0.1 µM (CCR7; read-out: % Inhibition of control agonist response) was -1.8%, the activity at 0.1 µM (CCR7; read-out: Agonist Response (% of Control), Mean, antagonist effect, 100 nM, mean of 2) was 127% and the activity at 0.1 µM (CCR7; read-out: Agonist Response (% of Control), antagonist effect, 100 nM, single replicates 1st and 2nd) was 131%. For the same compound, the remaining activity at 0.1 µM (M2; [2]) was 108%, the inhibition at 0.1 µM (M2; [3]) was -8% and the “% Of control specific binding” value (M2; [4]) was 111.1%. For the same compound, the remaining activity at 0.1 µM (M2; [5]) was 104%.
